Values of other authors in patent US8968778B2, “Threo-DOPS controlled release formulation” (Lundbeck NA Ltd., priority 2003, dated 2015).

Experiments:
[1] = system: microvessel preparations

| Compound | Time that increased plasma levels of both molecules (L-threo-DOPS and NE) remain (after oral administration of L-threo-DOPS) | Time of peak plasma levels of L-threo-DOPS (after oral ingestion) [h] | Time of peak NE levels (after oral ingestion of L-threo-DOPS, norepinephrine in plasma) [h] | Specific uptake in microvessel preparations [1] |
| --- | --- | --- | --- | --- |
| N[C@H](C(=O)O)[C@H](O)c1ccc(O)c(O)c1 [L-threo-DOPS] | at least 12 hours | 3 | 5 | – |
| N[C@H](C(=O)O)[C@H](O)c1ccc(O)c(O)c1 [threo-DOPS, Threo-3-(3,4-dihydroxyphenyl)serine] | – | – | – | Specific uptake |
